Test results published in BindingDB's records for doi:10.7270/Q2DF6PMF (Nmmlsc, 2007).

target: T1, N-formyl peptide receptor 2 (Homo sapiens, UniProt P25090); assay: concentration-dependent FPRL1 ligand displacement – cell-based, FPR counter-screen, fluorescent ligand, dose response (AID 520)
T1 sequence (P25090 whole entry): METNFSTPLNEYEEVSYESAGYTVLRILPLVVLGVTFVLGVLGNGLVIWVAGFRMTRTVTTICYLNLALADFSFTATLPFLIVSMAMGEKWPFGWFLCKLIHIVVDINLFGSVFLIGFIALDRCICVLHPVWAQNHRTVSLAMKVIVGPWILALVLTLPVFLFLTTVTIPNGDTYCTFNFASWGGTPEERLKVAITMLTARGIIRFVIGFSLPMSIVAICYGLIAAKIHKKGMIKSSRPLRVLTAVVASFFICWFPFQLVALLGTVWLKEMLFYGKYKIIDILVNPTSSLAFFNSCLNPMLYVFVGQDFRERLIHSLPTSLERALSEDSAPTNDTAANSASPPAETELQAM

Compound	IC50 [µM]	Ki [µM]
COC(=O)c1[nH]c(C)c(C(=O)C2C(=O)C(=O)N(CCN3CCOCC3)C2c2cccnc2)c1C (centres undefined) [4-[(E)-hydroxy-[1-[2-(4-morpholinyl)ethyl]-4,5-dioxo-2-(3-pyridinyl)-3-pyrrolidinylidene]methyl]-3,5-dimethyl-1H-pyrrole-2-carboxylic acid methyl ester]	> 66.7	> 40.3
CCOC(=O)N1CCC(NC(=O)c2cc(C(=O)Nc3ccc(OC)c(OC)c3)ccc2CO)CC1 [4-[[5-[(3,4-dimethoxyphenyl)carbamoyl]-2-methylol-benzoyl]amino]piperidine-1-carboxylic acid ethyl ester]	> 66.7	–
O=C(c1ccc(Cl)cc1)N(Cc1cccs1)C1CCS(=O)(=O)C1 (centres undefined) [4-chloro-N-(1,1-diketothiolan-3-yl)-N-(2-thenyl)benzamide]	> 66.7	–
CC1CCN(c2nc(-c3ccccc3)c(C#N)c(=O)[nH]2)CC1 [4-hydroxy-2-(4-methylpiperidin-1-yl)-6-phenylpyrimidine-5-carbonitrile]	> 66.7	–
O=C(O)CCCNc1cc(N2CCC3(CC2)OCCO3)c2noc3c2c1C(=O)c1ccccc1-3 [4-{[3-(1,4-dioxa-8-azaspiro[4.5]dec-8-yl)-6-oxo-6H-anthra[1,9-cd]isoxazol-5-yl]amino}butanoic acid]	10.9	–
COc1ccc(-c2nnc(Nc3nc4c(OC)cccc4s3)o2)c(OC)c1 [5-(2,4-dimethoxyphenyl)-N-(4-methoxy-1,3-benzothiazol-2-yl)-1,3,4-oxadiazol-2-amine]	> 66.7	–
Clc1ccc(C2CC(c3cccs3)n3ncnc3N2)cc1Cl (centres undefined) [5-(3,4-dichlorophenyl)-7-(2-thienyl)-1,5,6,7-tetrahydro-[1,2,4]triazolo[1,5-a]pyrimidine]	> 66.7	–
Cc1cccc(C2CC(c3ccc(Cl)cc3)Nc3nc(N)nn32)c1 (centres undefined) [5-(4-chlorophenyl)-7-(3-methylphenyl)-1,5,6,7-tetrahydro-[1,2,4]triazolo[1,5-a]pyrimidin-2-amine]	> 66.7	–
O=C(Nc1ccc(Nc2ccccc2)cc1)c1ccc(Br)o1 [5-bromanyl-N-(4-phenylazanylphenyl)furan-2-carboxamide]	> 66.7	–
COc1ccc(-c2nc(-c3ccc(NC(=O)c4ccc(Br)o4)cc3)no2)cc1OC [5-bromanyl-N-[4-[5-(3,4-dimethoxyphenyl)-1,2,4-oxadiazol-3-yl]phenyl]furan-2-carboxamide]	> 66.7	–
Cc1nc2c(C#N)c[nH]n2c(=O)c1Cc1ccccc1 [5-methyl-7-oxo-6-(phenylmethyl)-1H-pyrazolo[1,5-a]pyrimidine-3-carbonitrile]	> 66.7	–
CCCCCNC(=O)c1ccc2c(=O)[nH]c3c(C(=O)NCC4CCCO4)sc(=S)n3c2c1 (centres undefined) [5-oxo-N3-(2-oxolanylmethyl)-N8-pentyl-1-sulfanylidene-4H-thiazolo[3,4-a]quinazoline-3,8-dicarboxamide]	> 66.7	–
Cc1ccsc1C1C2C(=O)CC(C)(C)CC2=Nc2ncnn21 (centres undefined) [6,6-dimethyl-9-(3-methyl-2-thienyl)-1,5,7,9-tetrahydro-[1,2,4]triazolo[5,1-b]quinazolin-8-one]	> 66.7	> 40.3
Clc1ccc(Cc2nn3c(-c4ccncc4)nnc3s2)cc1 [6-(4-chlorobenzyl)-3-(4-pyridyl)-[1,2,4]triazolo[3,4-b][1,3,4]thiadiazole]	> 66.7	–
COc1ccc(-c2nc(N3CCCC3)[nH]c(=O)c2C#N)cc1 [6-(4-methoxyphenyl)-4-oxidanylidene-2-pyrrolidin-1-yl-1H-pyrimidine-5-carbonitrile]	> 66.7	–
O=C(O)C1CC=CCC1C(=O)N1CCN(c2nc(-c3ccccc3)c3ccccc3n2)CC1 (centres undefined) [6-[4-(4-phenylquinazolin-2-yl)piperazin-1-yl]carbonylcyclohex-3-ene-1-carboxylic acid]	> 66.7	–
COc1cc(-n2nc(C)c3c2OC(=N)C(C#N)C3c2ccccc2)c(Cl)c(Br)c1O (centres undefined) [6-amino-1-(3-bromo-2-chloro-4-hydroxy-5-methoxyphenyl)-3-methyl-4-phenyl-1,4-dihydropyrano[2,3-c]pyrazole-5-carbonitrile]	> 66.7	> 40.3
CSCCC1c2c(-c3cccs3)n[nH]c2OC(=N)C1C#N (centres undefined) [6-azanyl-4-(2-methylsulfanylethyl)-3-thiophen-2-yl-2,4-dihydropyrano[2,3-c]pyrazole-5-carbonitrile]	> 66.7	> 40.3
Cc1c(C)c2cc(Cl)c(O)c(CN3CCCCC3)c2oc1=O [6-chloranyl-3,4-dimethyl-7-oxidanyl-8-(piperidin-1-ylmethyl)chromen-2-one]	> 66.7	–
Oc1cc(-c2ccccc2)nc(N2CCN(Cc3ccccc3)CC2)n1 [6-phenyl-2-[4-(phenylmethyl)-1-piperazinyl]-1H-pyrimidin-4-one]	> 66.7	–

Compound	IC50 [µM]	Ki [µM]
COc1ccc2cnn(-c3ccccc3)c(=O)c2c1OC [7,8-dimethoxy-2-phenyl-1(2H)-phthalazinone]	> 66.7	–
COc1ccc2c(=O)c(-c3cnn(-c4ccccc4)c3)c(C)oc2c1 [7-methoxy-2-methyl-3-(1-phenyl-1H-pyrazol-4-yl)-4H-chromen-4-one]	> 66.7	–
Cc1ccc(C2c3c([nH]c(=S)[nH]c3=O)N=C3CC(C)(C)CC(=O)C32)cc1 (centres undefined) [8,8-dimethyl-5-(4-methylphenyl)-2-sulfanylidene-5,7,9,10-tetrahydro-1H-pyrimido[4,5-b]quinoline-4,6-dione]	> 66.7	> 40.3
COc1ccccc1Oc1c(C)oc2c(CN(C)C)c(O)ccc2c1=O [8-Dimethylaminomethyl-7-hydroxy-3-(2-methoxy-phenoxy)-2-methyl-chromen-4-one]	> 66.7	–
COc1ccc(OC)c(C(=O)c2nc3c(n2O)CCCCC3)c1 [(2,5-dimethoxyphenyl)-(3-hydroxy-5,6,7,8-tetrahydro-4H-cyclohept[d]imidazol-2-yl)methanone]	> 66.7	–
Nc1ccc(Nc2ccccc2N)cc1 [(2-aminophenyl)-(4-aminophenyl)amine]	15	–
COC(=O)[C@H](C(C)C)n1c(C)c(C(C)=O)c(C(C)=O)c1C [(2S)-2-(3,4-diacetyl-2,5-dimethyl-1-pyrrolyl)-3-methylbutanoic acid methyl ester]	> 66.7	–
CC1=C(C(=O)OC(C)C)[C@]2(C(=O)N(CC(N)=O)c3ccccc32)C(C#N)C(=N)O1 (stereo partly drawn) [(3R)-6'-amino-1-(2-amino-2-keto-ethyl)-5'-cyano-2-keto-2'-methyl-spiro[indoline-3,4'-pyran]-3'-carboxylic acid isopropyl ester]	> 66.7	> 40.3
C=CCN1C(=O)C2(c3ccccc31)C(C(=O)c1ccc3c(c1)OCCO3)C(=O)C(=O)N2CCCOC (centres undefined) [(4'E)-1-allyl-4'-[2,3-dihydro-1,4-benzodioxin-6-yl(hydroxy)methylene]-1'-(3-methoxypropyl)spiro[indoline-3,5'-pyrrolidine]-2,2',3'-trione]	> 66.7	> 40.3
CCCS(=O)(=O)N1CCCC(C(=O)N2CCC(Cc3ccccc3)CC2)C1 (centres undefined) [(4-benzylpiperidin-1-yl)-(1-propylsulfonylpiperidin-3-yl)methanone]	> 66.7	–
Cc1ccc(Nc2nc(C3CC3)cs2)cc1 [(4-cyclopropylthiazol-2-yl)-(p-tolyl)amine]	> 66.7	–
COc1cc(C2C(C(=O)c3ccc4c(c3)CC(C)O4)C(=O)C(=O)N2CCCn2ccnc2)ccc1O (centres undefined) [(4E)-1-(3-imidazol-1-ylpropyl)-5-(3-methoxy-4-oxidanyl-phenyl)-4-[(2-methyl-2,3-dihydro-1-benzofuran-5-yl)-oxidanyl-methylidene]pyrrolidine-2,3-dione]	> 66.7	> 40.3
COCCCN1C(=O)C(=O)C(C(=O)c2ccc3c(c2)CC(C)O3)C1c1cccnc1 (centres undefined) [(4E)-1-(3-methoxypropyl)-4-[(2-methyl-2,3-dihydro-1-benzofuran-5-yl)-oxidanyl-methylidene]-5-pyridin-3-yl-pyrrolidine-2,3-dione]	> 66.7	> 40.3
Cc1ccc(C)c(C(=O)C2C(=O)C(=O)N(CCCn3ccnc3)C2c2ccncc2)c1 (centres undefined) [(4E)-4-[(2,5-dimethylphenyl)-hydroxy-methylene]-1-(3-imidazol-1-ylpropyl)-5-(4-pyridyl)pyrrolidine-2,3-quinone]	> 66.7	> 40.3
Cc1nc2c(C)cccn2c1C(=O)C1C(=O)C(=O)N(CCN2CCOCC2)C1c1cccs1 (centres undefined) [(4E)-4-[(2,8-dimethyl-3-imidazo[1,2-a]pyridinyl)-hydroxymethylidene]-1-[2-(4-morpholinyl)ethyl]-5-thiophen-2-ylpyrrolidine-2,3-dione]	> 66.7	> 40.3
COc1cccc(C2C(C(=O)c3ccc(OC)c(OC)c3)C(=O)C(=O)N2c2cc(C)on2)c1 (centres undefined) [(4E)-4-[(3,4-dimethoxyphenyl)-hydroxy-methylene]-5-(3-methoxyphenyl)-1-(5-methylisoxazol-3-yl)pyrrolidine-2,3-quinone]	> 66.7	> 40.3
COCCCN1C(=O)C(=O)C(C(=O)c2ccc(OC)cc2C)C1c1cccnc1 (centres undefined) [(4E)-4-[(4-methoxy-2-methyl-phenyl)-oxidanyl-methylidene]-1-(3-methoxypropyl)-5-pyridin-3-yl-pyrrolidine-2,3-dione]	> 66.7	> 40.3
COCCCN1C(=O)C(=O)C(C(=O)c2ccccc2)C1c1ccc2c(c1)OCO2 (centres undefined) [(4E)-5-(1,3-benzodioxol-5-yl)-1-(3-methoxypropyl)-4-[oxidanyl(phenyl)methylidene]pyrrolidine-2,3-dione]	> 66.7	> 40.3
COc1ccc(C(=O)C2C(=O)C(=O)N(Cc3ccco3)C2c2ccc(OC)cc2OC)cc1 (centres undefined) [(4E)-5-(2,4-dimethoxyphenyl)-1-(2-furanylmethyl)-4-[hydroxy-(4-methoxyphenyl)methylidene]pyrrolidine-2,3-dione]	> 66.7	> 40.3
